Consider 14 molecules from ChEMBL document CHEMBL1122711, “Design, synthesis, and testing of potential antisickling agents. 4. Structure-activity relationships of benzyloxy and phenoxy acids” (J Med Chem, 1984).

The conditions of data set [1]: human, 40000 µM.
Description: Solubility ratio ([HbS+drug (40 mM)]/[HbS-drug])
The conditions of data set [2]: human, 20000 µM.
Description: Solubility ratio ([HbS+drug (20 mM)]/[HbS-drug]
The conditions of data set [3]: human, 5000 µM.
Description: Solubility ratio ([HbS+drug (5 mM)]/[HbS-drug])
The conditions of data set [4]: human, 10000 µM.

In the case of `COc1cc(Cl)ccc1COCC(=O)O`, the Solubility ratio in data set [1] stood at 1.311; in data set [2], 1.233; in data set [3] it was 1.062; in data set [4], 1.121.
For the molecule `Cc1ccc(OCC(=O)O)cc1C`, the Solubility ratio in data set [1] came out at 1.243; in data set [2], 1.118; in data set [3], 1.027; in data set [4] it was 1.06.
Regarding `O=C(O)COCc1ccc(Cl)cc1Cl`, the Solubility ratio in data set [1] stood at 1.246; in data set [2], 1.295; in data set [3] it was 1.079; in data set [4], 1.13.
Turning to `CC(C)(Oc1ccc(Cl)cc1)C(=O)Oc1ccccc1C(=O)O`, the Solubility ratio turned out to be 1.109 in data set [1], 1.153 in data set [2], 1.022 in data set [3] and 1.044 in data set [4].
In the case of `C=CCc1ccc(OCC(=O)O)c(OC)c1`, the Solubility ratio in data set [1] is 1.245; in data set [2], 1.141; in data set [3], 1.033; in data set [4], 1.043.
In the same order, the values of `O=C(O)COCc1ccc(Oc2ccccc2)cc1` are 1.162, 1.165, 1.034 and 1.088.
Turning to `COc1ccc(COCC(=O)O)cc1`, the Solubility ratio in data set [1] is recorded as 1.149; in data set [2], 1.054; in data set [3] it was 0.996; in data set [4] it was 1.012.
Consider `Nc1ccc(OCC(=O)O)cc1`, for which the Solubility ratio was 1.145 in data set [1], 1.113 in data set [2], 1 in data set [3] and 1.01 in data set [4].
For `Cc1ccc(COCC(=O)O)cc1`, the Solubility ratio is 1.304 in data set [1], 1.137 in data set [2], 1.017 in data set [3] and 1.059 in data set [4].
Turning to `O=C(O)COCc1ccc(I)cc1`, the Solubility ratio is reported as 1.35 in data set [1], 1.236 in data set [2], 1.039 in data set [3] and 1.09 in data set [4].
In the case of `COc1cccc(OCC(=O)O)c1OC`, the Solubility ratio in data set [1] is listed as 1.144; in data set [2] it was 1.064; in data set [3] it was 1.017; in data set [4], 1.036.
In the case of `O=C(O)COc1c(Br)cc(Br)cc1Br`, the Solubility ratio in data set [1] amounted to 1.248; in data set [2], 1.145; in data set [3], 1.018; in data set [4], 1.077.
For `O=C(O)COCc1cc(Cl)cc(Cl)c1`, the Solubility ratio in data set [1] turned out to be 1.382; in data set [2] it was 1.33; in data set [3] it was 1.076; in data set [4] it was 1.149.
In the case of `Cc1cc(C)cc(OCC(=O)O)c1`, the Solubility ratio is recorded as 1.31 in data set [1], 1.141 in data set [2], 1.035 in data set [3] and 1.048 in data set [4].
